{
  "source": "ChEMBL document CHEMBL4376820",
  "about": "“Homodimeric Tobramycin Adjuvant Repurposes Novobiocin as an Effective Antibacterial Agent against Gram-Negative Bacteria” (J Med Chem, 2019)",
  "key": {"Pseudomonas aeruginosa [1]": {"system": "Pseudomonas aeruginosa", "assay": "Synergistic antibacterial activity against wild type Pseudomonas aeruginosa PAO1 assessed as potentiation of cefotaxime-induced antibacterial effect incubated for 18 hrs by checkerboard assay", "format": "functional, organism-based"}, "Pseudomonas aeruginosa [2]": {"system": "Pseudomonas aeruginosa", "assay": "Synergistic antibacterial activity against wild type Pseudomonas aeruginosa PAO1 assessed as potentiation of meropenem-induced antibacterial effect incubated for 18 hrs by checkerboard assay", "format": "functional, organism-based"}, "Pseudomonas aeruginosa [3]": {"system": "Pseudomonas aeruginosa", "assay": "Synergistic antibacterial activity against wild type Pseudomonas aeruginosa PAO1 assessed as potentiation of aztreonam-induced antibacterial effect incubated for 18 hrs by checkerboard assay", "format": "functional, organism-based"}, "Pseudomonas aeruginosa [4]": {"system": "Pseudomonas aeruginosa", "assay": "Synergistic antibacterial activity against wild type Pseudomonas aeruginosa PAO1 assessed as potentiation of clindamycin-induced antibacterial effect incubated for 18 hrs by checkerboard assay", "format": "functional, organism-based"}, "Pseudomonas aeruginosa [5]": {"system": "Pseudomonas aeruginosa", "assay": "Synergistic antibacterial activity against wild type Pseudomonas aeruginosa PAO1 assessed as potentiation of tobramycin-induced antibacterial effect at <= 7.1 uM incubated for 18 hrs by checkerboard assay", "format": "functional, organism-based"}, "Pseudomonas aeruginosa [6]": {"system": "Pseudomonas aeruginosa", "assay": "Synergistic antibacterial activity against wild type Pseudomonas aeruginosa PAO1 assessed as potentiation of rifampicin-induced antibacterial effect incubated for 18 hrs by checkerboard assay relative to rifampicin alone", "format": "functional"}, "Pseudomonas aeruginosa [7]": {"system": "Pseudomonas aeruginosa", "assay": "Synergistic antibacterial activity against wild type Pseudomonas aeruginosa PAO1 assessed as potentiation of meropenem-induced antibacterial effect incubated for 18 hrs by checkerboard assay relative to meropenem alone", "format": "functional"}, "Pseudomonas aeruginosa [8]": {"system": "Pseudomonas aeruginosa", "assay": "Synergistic antibacterial activity against wild type Pseudomonas aeruginosa PAO1 assessed as potentiation of moxifloxacin-induced antibacterial effect incubated for 18 hrs by checkerboard assay relative to moxifloxacin alone", "format": "functional"}, "Pseudomonas aeruginosa [9]": {"system": "Pseudomonas aeruginosa", "assay": "Potentiation of novobiocin-induced antibacterial activity against wild type Pseudomonas aeruginosa PAO1 assessed as novobiocin MIC at <= 7.1 uM incubated for 18 hrs by CLSI protocol based assay (reference value: 512 ug/ml)", "format": "functional", "conditions": "PAO1, 18 h"}, "Pseudomonas aeruginosa [10]": {"system": "Pseudomonas aeruginosa", "assay": "Potentiation of novobiocin-induced antibacterial activity against carbapenem-resistant Pseudomonas aeruginosa 259-96918 clinical isolate assessed as novobiocin MIC at <= 7.1 uM incubated for 18 hrs by CLSI protocol based assay (reference value: 512 ug/ml)", "format": "functional", "conditions": "259-96918, 18 h"}, "Pseudomonas aeruginosa [11]": {"system": "Pseudomonas aeruginosa", "assay": "Potentiation of novobiocin-induced antibacterial activity against carbapenem-resistant Pseudomonas aeruginosa 260-97103 clinical isolate assessed as novobiocin MIC at <= 7.1 uM incubated for 18 hrs by CLSI protocol based assay (reference value: 256 ug/ml)", "format": "functional", "conditions": "260-97103, 18 h"}, "Pseudomonas aeruginosa [12]": {"system": "Pseudomonas aeruginosa", "assay": "Potentiation of novobiocin-induced antibacterial activity against carbapenem-resistant Pseudomonas aeruginosa 262-101856 clinical isolate assessed as novobiocin MIC at <= 7.1 uM incubated for 18 hrs by CLSI protocol based assay (reference value: 512 ug/ml)", "format": "functional", "conditions": "262-101856, 18 h"}, "Pseudomonas aeruginosa [13]": {"system": "Pseudomonas aeruginosa", "assay": "Potentiation of novobiocin-induced antibacterial activity against carbapenem-resistant Pseudomonas aeruginosa 100036 clinical isolate assessed as novobiocin MIC at <= 7.1 uM incubated for 18 hrs by CLSI protocol based assay (reference value: 1024 ug/ml)", "format": "functional", "conditions": "Pseudomonas aeruginosa, 100036, 18 h"}, "Pseudomonas aeruginosa [14]": {"system": "Pseudomonas aeruginosa", "assay": "Potentiation of novobiocin-induced antibacterial activity against carbapenem-resistant Pseudomonas aeruginosa 101885 clinical isolate assessed as novobiocin MIC at <= 7.1 uM incubated for 18 hrs by CLSI protocol based assay (reference value: 1024 ug/ml)", "format": "functional", "conditions": "Pseudomonas aeruginosa, 101885, 18 h"}, "Acinetobacter baumannii [15]": {"system": "Acinetobacter baumannii", "assay": "Potentiation of novobiocin-induced antibacterial activity against Acinetobacter baumannii 031 clinical isolate assessed as novobiocin MIC at <= 7.1 uM incubated for 18 hrs by CLSI protocol based assay (reference value: 8 ug/ml)", "format": "functional", "conditions": "Acinetobacter baumannii, 031, 18 h"}, "Escherichia coli [16]": {"system": "Escherichia coli", "assay": "Potentiation of novobiocin-induced antibacterial activity against carbapenem-resistant Escherichia coli 107115 clinical isolate harboring mcr-1 gene assessed as novobiocin MIC at <= 7.1 uM incubated for 18 hrs by CLSI protocol based assay (reference value: 128 ug/ml)", "format": "functional", "conditions": "Escherichia coli, 107115, 18 h"}, "Pseudomonas aeruginosa [17]": {"system": "Pseudomonas aeruginosa", "assay": "Antibacterial activity against carbapenem-resistant Pseudomonas aeruginosa 264-104354 clinical isolate incubated for 18 hrs by CLSI protocol based assay", "format": "functional", "conditions": "264-104354, 18 h"}, "Pseudomonas aeruginosa [18]": {"system": "Pseudomonas aeruginosa", "assay": "Antibacterial activity against colistin and carbapenem-resistant Pseudomonas aeruginosa 101243 clinical isolate incubated for 18 hrs by CLSI protocol based assay", "format": "functional", "conditions": "Pseudomonas aeruginosa, 101243, 18 h"}, "Acinetobacter baumannii [19]": {"system": "Acinetobacter baumannii", "assay": "Antibacterial activity against colistin-resistant Acinetobacter baumannii 92257 clinical isolate incubated for 18 hrs by CLSI protocol based assay", "format": "functional", "conditions": "Acinetobacter baumannii, 92257, 18 h"}, "Acinetobacter baumannii [20]": {"system": "Acinetobacter baumannii", "assay": "Antibacterial activity against Acinetobacter baumannii 110193 clinical isolate incubated for 18 hrs by CLSI protocol based assay", "format": "functional", "conditions": "Acinetobacter baumannii, 110193, 18 h"}, "Klebsiella pneumoniae [21]": {"system": "Klebsiella pneumoniae", "assay": "Antibacterial activity against colistin-resistant Klebsiella pneumoniae 113250 clinical isolate incubated for 18 hrs by CLSI protocol based assay", "format": "functional", "conditions": "Klebsiella pneumoniae, 113250, 18 h"}, "Enterobacter cloacae": {"system": "Enterobacter cloacae", "assay": "Antibacterial activity against Enterobacter cloacae 117029 clinical solate incubated for 18 hrs by CLSI protocol based assay", "format": "functional", "conditions": "Enterobacter cloacae, 117029, 18 h"}, "Pseudomonas aeruginosa [22]": {"system": "Pseudomonas aeruginosa", "assay": "Potentiation of novobiocin-induced antibacterial activity against carbapenem-resistant Pseudomonas aeruginosa 262-101856 clinical isolate assessed as fold reduction in novobiocin MIC incubated for 18 hrs by CLSI protocol based assay relative to novobiocin MIC", "format": "functional"}, "Pseudomonas aeruginosa [23]": {"system": "Pseudomonas aeruginosa", "assay": "Potentiation of novobiocin-induced antibacterial activity against carbapenem and colistin-resistant Pseudomonas aeruginosa 114228 clinical isolate assessed as fold reduction in novobiocin MIC incubated for 18 hrs by CLSI protocol based assay relative to novobiocin MIC", "format": "functional"}, "Acinetobacter baumannii [24]": {"system": "Acinetobacter baumannii", "assay": "Potentiation of novobiocin-induced antibacterial activity against Acinetobacter baumannii 027 clinical isolate assessed as fold reduction in novobiocin MIC incubated for 18 hrs by CLSI protocol based assay relative to novobiocin MIC", "format": "functional"}, "Acinetobacter baumannii [25]": {"system": "Acinetobacter baumannii", "assay": "Potentiation of novobiocin-induced antibacterial activity against Acinetobacter baumannii 110193 clinical isolate assessed as fold reduction in novobiocin MIC incubated for 18 hrs by CLSI protocol based assay relative to novobiocin MIC", "format": "functional"}, "Escherichia coli [26]": {"system": "Escherichia coli", "assay": "Potentiation of novobiocin-induced antibacterial activity against carbapenem-resistant Escherichia coli 107115 clinical isolate harboring mcr-1 gene assessed as fold reduction in novobiocin MIC incubated for 18 hrs by CLSI protocol based assay relative to novobiocin MIC", "format": "functional"}, "Klebsiella pneumoniae [27]": {"system": "Klebsiella pneumoniae", "assay": "Bactericidal activity against Klebsiella pneumoniae 116381 assessed as log reduction in colony forming units per ml at 7.1 in LB media after 24 hrs in presence of 50.4 uM novobiocin by time-kill assay", "format": "functional, organism-based"}, "Pseudomonas aeruginosa [28]": {"system": "Pseudomonas aeruginosa", "assay": "Induction of outer membrane permeabilization in Pseudomonas aeruginosa PAO1 assessed as increase in accumulation of NPN by measuring fluorescence intensity measured immediately by NPN dye uptake assay", "format": "organism-based"}, "Acinetobacter baumannii [29]": {"system": "Acinetobacter baumannii", "assay": "Antibacterial activity against wild type Acinetobacter baumannii ATCC 17978 assessed as resistant development at 7.1 uM in presence of novobiocin by microbroth dilution method relative to control", "format": "functional"}, "Acinetobacter baumannii [30]": {"system": "Acinetobacter baumannii", "assay": "Antibacterial activity against wild type Acinetobacter baumannii ATCC 17978 assessed as resistant development at 7.1 uM measured after 5 days of passaging in presence of novobiocin by microbroth dilution method relative to control", "format": "functional"}, "Acinetobacter baumannii [31]": {"system": "Acinetobacter baumannii", "assay": "Antibacterial activity against wild type Acinetobacter baumannii ATCC 17978 by checkerboard assay", "format": "functional"}},
  "note": "The source made the active and inactive calls. The rule behind the calls is not given here.",
  "data": [
    {"smiles": "NC[C@H]1O[C@H](O[C@H]2[C@H](OCCCCc3cn(CCCCO[C@@H]4[C@@H](O[C@H]5O[C@H](CO)[C@@H](O)[C@H](N)[C@H]5O)[C@H](N)C[C@H](N)[C@H]4O[C@H]4O[C@H](CN)[C@@H](O)C[C@H]4N)nn3)[C@@H](O[C@H]3O[C@H](CO)[C@@H](O)[C@H](N)[C@H]3O)[C@H](N)C[C@@H]2N)[C@H](N)C[C@@H]1O.O=C(O)C(F)(F)F.O=C(O)C(F)(F)F.O=C(O)C(F)(F)F.O=C(O)C(F)(F)F.O=C(O)C(F)(F)F.O=C(O)C(F)(F)F.O=C(O)C(F)(F)F.O=C(O)C(F)(F)F.O=C(O)C(F)(F)F.O=C(O)C(F)(F)F", "values": [
      {"measurement": "Activity", "setting": "Pseudomonas aeruginosa [1]", "value": "Dose-dependent effect"},
      {"measurement": "Activity", "setting": "Pseudomonas aeruginosa [2]", "value": "Dose-dependent effect"},
      {"measurement": "Activity", "setting": "Pseudomonas aeruginosa [3]", "value": "Dose-dependent effect"},
      {"measurement": "Activity", "setting": "Pseudomonas aeruginosa [4]", "value": "Dose-dependent effect"},
      {"measurement": "Activity", "setting": "Pseudomonas aeruginosa [5]", "value": "inactive"},
      {"measurement": "fold change (FC)", "setting": "Pseudomonas aeruginosa [6]", "value": "4 - 128"},
      {"measurement": "fold change (FC)", "setting": "Pseudomonas aeruginosa [7]", "value": "4 - 128"},
      {"measurement": "fold change (FC)", "setting": "Pseudomonas aeruginosa [8]", "value": "4 - 128"},
      {"measurement": "MIC", "setting": "Pseudomonas aeruginosa [9]", "value": 4, "unit": "µg/mL"},
      {"measurement": "MIC", "setting": "Pseudomonas aeruginosa [10]", "value": 8, "unit": "µg/mL"},
      {"measurement": "MIC", "setting": "Pseudomonas aeruginosa [11]", "value": 1, "unit": "µg/mL"},
      {"measurement": "MIC", "setting": "Pseudomonas aeruginosa [12]", "value": 8, "unit": "µg/mL"},
      {"measurement": "MIC", "setting": "Pseudomonas aeruginosa [13]", "value": 8, "unit": "µg/mL"},
      {"measurement": "MIC", "setting": "Pseudomonas aeruginosa [14]", "value": 8, "unit": "µg/mL"},
      {"measurement": "MIC", "setting": "Acinetobacter baumannii [15]", "value": 0.5, "unit": "µg/mL"},
      {"measurement": "MIC", "setting": "Escherichia coli [16]", "value": 8, "unit": "µg/mL"},
      {"measurement": "MIC", "setting": "Pseudomonas aeruginosa [17]", "value": "> 128", "unit": "µg/mL"},
      {"measurement": "MIC", "setting": "Pseudomonas aeruginosa [18]", "value": "> 128", "unit": "µg/mL"},
      {"measurement": "MIC", "setting": "Acinetobacter baumannii [19]", "value": "> 128", "unit": "µg/mL"},
      {"measurement": "MIC", "setting": "Acinetobacter baumannii [20]", "value": "> 128", "unit": "µg/mL"},
      {"measurement": "MIC", "setting": "Klebsiella pneumoniae [21]", "value": "> 128", "unit": "µg/mL"},
      {"measurement": "MIC", "setting": "Enterobacter cloacae", "value": "> 128", "unit": "µg/mL"},
      {"measurement": "Ratio", "setting": "Pseudomonas aeruginosa [22]", "value": 64},
      {"measurement": "Ratio", "setting": "Pseudomonas aeruginosa [23]", "value": 32},
      {"measurement": "Ratio", "setting": "Acinetobacter baumannii [24]", "value": 16},
      {"measurement": "Ratio", "setting": "Acinetobacter baumannii [25]", "value": 256},
      {"measurement": "Ratio", "setting": "Escherichia coli [26]", "value": 16},
      {"measurement": "Activity", "setting": "Klebsiella pneumoniae [27]", "value": "Active"},
      {"measurement": "Activity", "setting": "Pseudomonas aeruginosa [28]", "value": "Dose-dependent effect"},
      {"measurement": "fold change (FC)", "setting": "Acinetobacter baumannii [29]", "value": 2},
      {"measurement": "fold change (FC)", "setting": "Acinetobacter baumannii [30]", "value": 16},
      {"measurement": "MIC", "setting": "Acinetobacter baumannii [31]", "value": 0.5, "unit": "µg/mL"}
    ]}
  ]
}
